Entries after “also recorded” stand apart in the source; their conditions may differ.

The test system of assay [1] is MCP-1RB receptor. Put plainly: Intracellular calcium mobilization (indo-1) in stably transfected MCP-1RB/293 cells. To be noted: MCP-1RB/293 cells. The class given is cell-based, human. As to the method: Calcium mobilization in 293 cells was then investigated. Transfected HEK-293 cells were grown until confluent, trypsinized briefly, washed with phosphate buffered saline containing 1 mg/ml BSA (PBS-BSA), and resuspended in serum-free MEM-EBSS supplemented with 1 mg/ml BSA and 10 mM HEPES (pH 7.0) at a density of 2×10^7 cells/ml. The cells were incubated in the dark at 37° C. for 20 min in the presence of 5-10 μg/ml indo-1 AM (Molecular Probes, Inc., Eugene, Oreg.). Nine volumes of PGS-BSA were added, and the cells were incubated for an additional 10 min at 37° C., pelleted by centrifugation, and washed twice with 50 ml of the PBS-BSA solution. Washed, indo-1-loaded cells were then resuspended in Hank's Balanced Salt Solution (1.3 mM Ca^2+) supplemented with 1 mg/ml BSA (HBS-BSA) at a density of approximately 0.5×10^6 cells/ml at room temperature. To measure intracellular calcium ([Ca^2+ ]i), 0.5 ml of the cell suspension was placed in a quartz cuvette in a Hitachi F-2000 fluorescence spectrophotometer. […] Intracellular calcium was measured by excitation at 350 nm and fluorescence emission detection at 490 nm (F1) and 410 nm (F2) wavelengths. The [Ca^2+ ]i was estimated by comparing the 490/410 fluorescence ratio after agonist application (R) to that of calibration ratios measured at the end of each run, according to the equation:
[Ca^2+ ]i =Kd ×[(R--Rmin)/(Rmax
where Rmax and Rmin represent the fluorescence ratio under saturating (1.3 mM Ca^2+) and nominally free (10 mM EGTA, Sigma Chemical Co.) calcium conditions, Kd is the dissociation constant of calcium for indo-1, R is the fluorescence ratio, and Sf2/Sb2 is the fluorescence ratio of free and bound indo-1 dye at 410 nm. See Thomas, AP and Delaville, F (1991) in Cellular Calcium, a Practical Approach, Oxford Univ. Press, pp. 1-54.
To quantirate calcium responses, MCP-1 dose response curves were generated in each experiment and the results were expressed as a percent of the maximum calcium signal (at 300 nM MCP-1) measured in that experiment. The changes in [Ca^2+ ]i levels in response to each concentration of agonist were determined by subtracting the baseline from peak [Ca^2+ ]i levels, which were determined by averaging 5 seconds of data prior to agonist addition and surrounding the peak response, respectively. In experiments done to determine the role of extracellular calcium, 3 mM EGTA was added 60-90 seconds prior to MCP-1. […] All experiments were performed at room temperature.
(§1) Inhibition of MCP-1RB receptor activation by bordetella pertussis toxin was investigated. Pertussis toxin (List Biological Labs, Inc., Campbell, Calif.) was dissolved in 0.01M sodium phosphate, pH 7.0, 0.05M sodium chloride and diluted into normal serum containing media at final concentrations of 0.1 ng/ml to 100 ng/ml, and incubated with cells overnight (14-16 h) at 37° C. The conditions of the Pertussis toxin treatment of the 293 cells were identical for calcium fluorimetric and adenylyl cyclase experiments. In the adenylyl cyclase experiments, the Pertussis toxin was added at the same time as [^3 H]adenine.
(§2) Dose response curves generated in the calcium fluorimetric and adenylyl cyclase inhibition assays were fit by a nonlinear least squares program to the logistic equation:
(§3) Effect=max effect/[1+(EC50 /(agonist)^n)]
(§4) where n and EC50 represent the Hill coefficient and the agonist concentration that elicited a half-maximal response, respectively, and were derived from the fitted curve. Curve fitting was done with the computer program "Prism" (by Graph Pad, San Diego, Calif.). Results represent the mean ±SE. The 95% confidence intervals (CI) of the EC50 and IC50 values, when given, were calculated from the log EC50 and IC50 values, respectively.
In general terms: Calcium flux is commonly read through the fluorescence of an indicator in the cells.

The test system of assay [2] is MCP-1RB receptor. The assay is classed as cell-based, human. As to the method: To investigate inhibition of adenylyl cyclase activity, HEK-293 cells stably-transfected with the MCP-1RB receptor and the MIP-1α/RANTES receptor were grown until confluent in 24-well tissue culture dishes and labeled overnight with 2 μCi/ml of [^3 H]adenine (25-30 Ci/mmol) (New England Nuclear, Boston, Mass.) in MEM-EBSS supplemented with 10% FCS. The next day, the cells were washed by incubation at room temperature with 0.5 ml of serum-free MEM-EBSS media supplemented with 10 mM HEPES, 1 mg/ml BSA, and 1 mM IBMX (3-isobutyl-1-methylxanthine) for 5 min. […] The incubation was terminated by replacement of the media with 1 ml of ice-cold 5% TCA (trichloroacetic acid), 1 mM cAMP, and 1 mM ATP (Sigma). Following incubation at 4° C. for 30 min, the labeled [^3 H]ATP and [3H]cAMP pools were separated and quantitated by chromatography on Dowex 50W (200-400 mesh, hydrogen form, from Sigma) and neutral alumina columns (also from Sigma), as described in Hung, J. Biol. Chem. 267:20831-34 (1992) and Wong, Nature 351: 63-65 (1991). The 1 ml acid supernatant was loaded onto a 1-ml Dowex 50W column and the ATP pool eluted with 3 ml of H2 O. The Dowex 50W columns were then placed over 1-ml alumina columns, and 10 ml of H2 O was added to the Dowex resin and the eluant allowed to drop directly onto the neutral alumina. The cAMP pool was then eluted directly from the alumina with 5 ml of 0.1M imidazole/0.01mM sodium azide. The [^3 H]ATP and [^3 H]cAMP fractions were counted by liquid scintillation spectroscopy. The cAMP pool for each sample was normalized to its own ATP pool and expressed as a ratio by the equation (cAMP cpms/ATP cpms)×100. In each experiment full dose-response curves were generated and expressed as a percent of the forskolin control.
as §1, §2, §3, §4

The next assay relates to MM6 cells. Kind of assay: MCP-1 induced calcium flux in MM6 cells (calcium efflux assay). The assay is classed as cell-based, human. As to the method:
(§5) Because monocytes are difficult to isolate in usable quantity and express less than 2000 high affinity MCP-1 binding sites per cell, a cultured cell line that responded well to MCP-1 had to be identified. Using the calcium effiux assay as described in Vu, Cell 64:1057-68(1991), MCP-1 induced calcium fluxes in various cell lines were measured. […] In contrast, a dose-dependent calcium flux was detected in MM6 cells, with half maximal stimulation at 4nM MCP-1.

Assay [3] concerns human erythroleukemia (HEL) cells. Kind of assay: MCP-1 induced calcium flux in HEL cells. The class given is cell-based. Here is the method:
as §5

A further assay has as its system monocyte. To be noted: Yoshimura, J. Immunol. 145:292-97 (1990); cited from earlier work.

Take “monocyte chemoattractant protein-1 [MCP-1]”: in the assay on MCP-1RB receptor [1], the “concentration giving small but reproducible calcium signals” value is listed as 100 pM, the “homologous desensitization to a second challenge with MCP-1” value was “refractory to activation by a second challenge; also recorded: desensitized the cells to a second addition” and the “time to peak of calcium transients after addition” value was in the range of 4 to 8 s. For the same substance, in the assay with MCP-1RB receptor [1] (average of four full dose-response curves), the EC50 lay in the range of 2 to 4 nM. Also, in the assay with MCP-1RB receptor [2], the “selectivity for the MCP-1 receptor” value was “at least 9000 fold”. Moreover, the “block of forskolin-induced increase of cAMP” value with MCP-1RB receptor [2] (co-addition with forskolin) is 78%. Further, in the assay with MCP-1RB receptor [2] (no forskolin, p<0.01), the “reduction of basal cAMP accumulation” value was determined as 55%. Moreover, the EC50 with MM6 cells (dose-dependent calcium flux, read-out: half maximal stimulation of calcium flux) stood at 4 nM. Besides, the “effect of prior exposure to the chemokine on the calcium response to the other chemokine” value in the assay with MM6 cells (label = chemokine given first, MCP-1 versus RANTES (or MIP-1α)) is given as “partially blocked”. The “MCP-1 induced calcium flux” value in assay [3] was “No calcium flux was detected”. Also, in the assay with monocyte, the “EC50 for monocyte chemotaxis” value is recorded as “subnanomolar”.

The record behind these values is patent US5707815A, “Mammalian monocyte chemoattractant protein receptors and assays using them” (Regents of the University of California, priority 1995, dated 1998).
